From publication PMC7996328, “Design, Synthesis, and Biological Evaluation of a Series of 5- and 7-Hydroxycoumarin Derivatives as 5-HT1A Serotonin Receptor Antagonists” (Pharmaceuticals, 2021)

How the values were obtained:
[1] = Solubility under experimental conditions of the 5-HT1A assay; format: physicochemical; conditions: reason for not testing in 5-HT1A assay
Method: Compounds were dissolved in 9.5% DMSO and 0.5% Kolliphor® EL (Sigma Aldrich, Taufkirchen, Germany). Serial dilutions of the compounds tested (10^−10–10^−5 M) were incubated in triplicate with 0.8 nM [^35S]GTPγS in assay buffer (50 mM Tris-HCl, pH = 7.4, 1 mM EGTA, 3 mM MgCl2, 100 mM NaCl, 30 µM GDP) and 8-OH-DPAT (final concentration 1.4 × 10^−7 M) in the final assay volume of 250 µL. Hippocampal homogenates (15 μg/mL) were added to each tube as the 5-HT1A receptor source. The final DMSO and Kolliphor® EL concentrations were 0.95% and 0.05%, respectively. Non-specific binding was determined with 10 µM of unlabeled GTPγS. The reaction mixture was incubated for 90 min at 37 °C in a volume of 250 µL. Next, 96-well Unifilter® Plates (Perkin Elmer, Waltham, MA, USA) were presoaked for 1 h with 50 mM Tris-HCl (pH = 7.4) before harvesting. The reaction was terminated by vacuum filtration onto filter plates with the FilterMate Harvester® (Perkin Elmer, Waltham, MA, USA). The samples were then rapidly washed with 2 mL of 50 mM Tris-HCl (pH = 7.4) buffer. Filter plates were dried for 2 h at 50 °C. After drying, 45 µL of EcoScint-20 scintillant (Perkin Elmer) was added to every well. Radioactivity was counted in a Trilux MicroBeta^2 counter (Perkin Elmer). Data were analyzed with GraphPad Prism 5.0 software (GraphPad Software, San Diego, CA, USA, www.graphpad.com). Curves were fitted with a one-site non-linear regression model. Efficacy (Emax) and half maximal inhibitory concentration (IC50) were calculated from the Cheng–Prusoff equation and expressed as means ± SEM.

5-HT2A receptor = biological target: T1, 5-HT2A receptor (Rattus norvegicus, UniProt P14842); test: 5-HT2A competition binding assay, [3H]ketanserin, frontal cortex homogenates; conditions: [3H]ketanserin 1 nM, read-out: Ki (nM ± SEM) (converted)
T1 construct: from tissue; host or cells: rat frontal cortex (male SD), membrane homogenate
T1 sequence (P14842 whole entry): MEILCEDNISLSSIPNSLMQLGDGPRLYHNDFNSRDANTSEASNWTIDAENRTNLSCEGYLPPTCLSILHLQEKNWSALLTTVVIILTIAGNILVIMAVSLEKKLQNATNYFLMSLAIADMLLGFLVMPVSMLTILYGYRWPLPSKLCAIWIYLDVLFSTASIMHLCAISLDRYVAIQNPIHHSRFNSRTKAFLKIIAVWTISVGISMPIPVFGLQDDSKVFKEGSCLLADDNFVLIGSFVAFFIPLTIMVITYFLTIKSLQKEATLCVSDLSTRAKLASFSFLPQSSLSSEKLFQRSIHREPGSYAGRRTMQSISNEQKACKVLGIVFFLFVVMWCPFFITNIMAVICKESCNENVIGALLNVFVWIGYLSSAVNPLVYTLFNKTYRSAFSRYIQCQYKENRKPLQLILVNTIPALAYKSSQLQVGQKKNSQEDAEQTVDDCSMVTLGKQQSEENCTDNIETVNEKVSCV

## CC(=O)c1c(OCCN2CCN(c3cccc(Br)c3)CC2)ccc2c(C)cc(=O)oc12 [Compound 6g, 8-acetyl-7-(2-[4-(3-bromohenyl)piperazin-1-yl]ethoxy)-4-methylchromen-2-one]
[1]
  solubility under experimental conditions: very poor solubility
5-HT2A receptor
  Ki: 1490 ± 466 nM
other
  melting point: 110 to 112 °C
